Experimental data reported in US9266852B2, “Daidzein derivative, pharmaceutically acceptable salt and preparation method thereof, and pharmaceutical composition containing same” (ANHUI BIOCHEM BIO-PHARMACEUTICAL CO., LTD, priority 2011, dated 2016).
Structures can show the parent of a compound that is named as a salt.

Key:
[1] = tested on: mice with hypoxia tolerance at normal pressure; assay: Hypoxia tolerance of mice at normal pressure (survival time in closed jar); format: in vivo; conditions: for Survival times (X ± s) / Prolongation rates (survival time): mice; for Survival times (X ± s): 20 min after administration, n = 10, control group 22.5 ± 2.6; for Prolongation rates (survival time): versus control group; for effect on hypoxia tolerance time, in words: conclusion from table 4, mice, intraperitoneal
Description: 70 mice were taken and randomly divided into seven groups, except the blank group which was not administered and the saline group which was administered with the same volume of saline, the remaining five groups were respectively injected intraperitoneally with 25 mg/kg pueraria daidzein, 36 mg/kg compound of the example of the present application, 47 mg/kg 4,7-disubstituted daidzein, 36 mg/kg 4-substituted daidzein and 36 mg/kg USP compound (the converted dose of each compound is equivalent to the dose of the daidzein, since the daidzein is difficult to dissolve in water, 50% propylene glycol aqueous solution is used to dissolve, and other compounds were dissolved with water to achieve a suitable concentration), 20 min after administration, the mice were put into a 250 ml grinding jar (where 10 g soda lime was placed), with one mouse in each jar, and the jar was capped tightly after the mouse was put into the jar, then the survival time of the mice was immediately recorded by a stopwatch.

[2] = tested on: euglobulin lysis time of guinea pigs; assay: Euglobulin lysis time of guinea pigs (antithrombotic effect research 1); format: in vivo; conditions: for Optimal dissolution times (X ± s), after administration / Fibrinolytic enzyme activities, after administration / Optimal dissolution times (X ± s), before administration / Fibrinolytic enzyme activities, before administration: guinea pigs; for Optimal dissolution times (X ± s), after administration: 30 minutes after last administration; for Fibrinolytic enzyme activities, after administration / Fibrinolytic enzyme activities, before administration: =10000/optimal dissolution time (min); for Optimal dissolution times (X ± s), before administration / Fibrinolytic enzyme activities, before administration: baseline before administration; for antithrombotic effect after oral administration, in words: conclusion from table 6, guinea pigs
Description: 30 guinea pigs were taken and randomly divided into five groups, each group was administered intragastrically with 25 mg/kg pueraria daidzein, 36 mg/kg compound of the example of the present application, 47 mg/kg 4,7-disubstituted daidzein, 36 mg/kg 4-substituted daidzein, and 36 mg/kg USP compound (the converted dose of each compound is equivalent to the dose of the daidzein, since the daidzein is difficult to dissolve in water, 50% propylene glycol aqueous solution is used to dissolve, and other compounds were dissolved with water to achieve a suitable concentration), 1.5 ml blood was taken from the heart before administration, and after 7 consecutive days of administration, 1.5 ml blood was taken from the heart 30 minutes after the last administration, and put into a sodium citrate anti-cruor tube, and the plasma was separated by centrifugation, then 0.5 ml plasma was taken and added with 9 ml distilled water and 0.1 ml of 1% acetic acid solution, and the mixture was centrifugated after being refrigerated for 30 minutes, then the resulting precipitate was dissolved with 0.5 ml sodium borate buffer (pH9.0), and the dissolution time was recorded as euglobulin lysis time, it can be obtained through calculation that fibrinolytic enzyme activity (u)=10000/optimal dissolution time (min).

decapitated mice = assay: Acute cerebral ischemia in mice (gasping time of decapitated mice); format: in vivo; conditions: for Gasping times (X ± s) / Prolongation rates (gasping time): decapitated mice; for Gasping times (X ± s): 20 min after administration, n = 10, control group 18.5 ± 3.1; for Prolongation rates (gasping time): versus control group; for effect on acute ischemia tolerance time, in words: conclusion from table 5, mice, intraperitoneal
Description: 70 mice were taken and randomly divided into seven groups, except the blank group which was not administered and the saline group which was administered with the same volume of saline, the remaining five groups were respectively injected intraperitoneally with 25 mg/kg pueraria daidzein, 36 mg/kg compound of the example of the present application, 47 mg/kg 4,7-disubstituted daidzein, 36 mg/kg 4-substituted daidzein and 36 mg/kg USP compound (the converted dose of each compound is equivalent to the dose of the daidzein, since the daidzein is difficult to dissolve in water, 50% propylene glycol aqueous solution is used to dissolve, and other compounds were dissolved with water to achieve a suitable concentration), 20 min after administration, the mice were decapitated rapidly from behind the ear, then the time starting from decapitation to the last gasp was recorded.

thrombus = assay: Formation time and length of thrombus in rabbit blood, thrombosis instrument (antithrombotic effect research 2); format: in vivo, rabbits; conditions: for Lengths of thrombus, after administration / Thrombus formation times (X ± s), after administration / Lengths of thrombus, before administration / Thrombus formation times (X ± s), before administration: rabbits; for Lengths of thrombus, after administration: 15 minutes rotation; for Thrombus formation times (X ± s), after administration: 30 minutes after last administration; for Lengths of thrombus, before administration / Thrombus formation times (X ± s), before administration: baseline before administration; for antithrombotic effect after oral administration, in words: conclusion from table 7, rabbits
Description: 30 rabbits were taken and randomly divided into five groups, each group was administered intragastrically with 15 mg/kg pueraria daidzein, 22 mg/kg compound of the example of the present application, 28 mg/kg 4,7-disubstituted daidzein, 22 mg/kg 4-substituted daidzein and 22 mg/kg USP compound (the converted dose of each compound is equivalent to the dose of the daidzein, since the daidzein is difficult to dissolve in water, 50% propylene glycol aqueous solution is used to dissolve, and other compounds were dissolved with water to achieve a suitable concentration), 2 ml blood was taken from the heart before administration, and after 7 consecutive days of administration, 2 ml blood was taken from the heart 30 minutes after the last administration, and injected immediately into the rotating ring of the thrombosis instrument, and rotated at 15-17 rpm under 37° C., and the rotating time of the thrombus alone with the ring was recorded, which is defined as thrombus formation time of fibrin, the rotation was stopped after 15 minutes, the thrombus was taken out, and the length of the thrombus was measured.

[3] = Experiment of solubility: solvent equilibrium experiment in methanol, gravimetric analysis; format: physicochemical; conditions: for solubility (solvent equilibrium experiment): methanol, 25°C, at least 20 hours, gravimetric, approximate
Description: in the water bath at 25±5° C., the solvent equilibrium experiment was performed on the above materials for at least 20 hours by using 1 mL methanol, then the solution was filtered and dried in the air for 10 minutes, and after the solvent was evaporated under vacuum, the approximate solubilities of the above materials in the solvent was measured through gravimetric analysis, with results shown in table 1.

rat in vitro thrombosis = assay: Anti-thrombosis experiment: rat in vitro thrombosis after oral administration (artery-jugular vein blood flow bypass method); format: in vivo, rat (Wistar, male)
Description: 1. Rat in vitro general artery-jugular vein blood flow in the bypass method (please refer to “Journal of Changchun University of Traditional Chinese Medicine”, 2011, Volume 27, Issue 4, Pages 514-518, Yunfei Sun, Min Shi, “Study on the Effect of Pueraria Injection on Thrombosis Formation, Cerebral Ischemia and Platelet Aggregation in Rats);
1. Experiment in vivo: the dose is 50 mg/kg, 100 mg/kg, 200 mg/kg, and the animals are administered intragastrically once daily at 1 ml/100 g […] for 3 consecutive days;
2. Positive control, the animals are administered with acetylsalicylic acid (produced by Northwest Second Synthetic Pharmaceutical Factory) at 45 mg/kg in the experiment in vivo.

[4] = tested on: whole blood in vitro thrombosis of normal rats; assay: Anti-thrombosis experiment: whole blood in vitro thrombosis after in vitro administration (in vitro thrombosis instrument method); conditions: Rattus norvegicus, read-out: Thrombosis inhibition rates
Description: ii) Experimental animals: Wistar, which is a male rat outbreeding closed system, purchased from the Institute of Laboratory Animal Sciences, Chinese Academy of Medical Sciences, weighing 242±11.2 g, the animals are divided into 5 groups with 10 animals in each group.
Experiment in vitro: the dose is 1.56 mg/kg, 3.12 mg/kg, 6.25 mg/kg, and the animals are administered once directly.
Blank control, the animals are administered with the same volume of distilled water in the experiment in vivo; and administered with the same volume of saline in the experiment in vitro;

[5] = 36 mg/kg intragastrically 7 consecutive days
[6] = 36 mg/kg intragastrically 7 days
[7] = 22 mg/kg intragastrically 7 consecutive days
[8] = 15 mg/kg intragastrically 7 consecutive days

| SMILES | Survival times (X ± s) ([1]; 36 mg/kg intraperitoneally) | Optimal dissolution times (X ± s), after administration [2, 5] | Fibrinolytic enzyme activities, after administration [2, 6] | Optimal dissolution times (X ± s), before administration ([2]; 36 mg/kg group) | Fibrinolytic enzyme activities, before administration ([2]; 36 mg/kg group) | Gasping times (X ± s) (decapitated mice; 36 mg/kg intraperitoneally) | Prolongation rates (gasping time) (decapitated mice; 36 mg/kg intraperitoneally) | Lengths of thrombus, after administration (thrombus; [7]) | Thrombus formation times (X ± s), after administration (thrombus; [7]) | Lengths of thrombus, before administration (thrombus; 22 mg/kg group) | Thrombus formation times (X ± s), before administration (thrombus; 22 mg/kg group) | solubility (solvent equilibrium experiment) [3] | also measured |
| --- | --- | --- | --- | --- | --- | --- | --- | --- | --- | --- | --- | --- | --- |
| CN(C)CCCC(=O)Oc1ccc2c(=O)c(-c3ccc(O)cc3)coc2c1 [USP compound, 7-O—N,N-dimethyl-aminobutyryl daidzein] | 24.6 ± 5.7 min | 25.7 ± 7.7 min | 389.1 u | 35.5 ± 8.2 min | 281.7 u | 23.5 ± 7.2 s | 27% | 11.8 ± 2.01 cm | 7.31 ± 1.72 min | 14.1 ± 3.84 cm | 6.37 ± 1.72 min |  | Prolongation rates (survival time) ([1]; 36 mg/kg intraperitoneally): 9.3% |
| CCN(CC)CC(=O)Oc1ccc2c(=O)c(-c3ccc(O)cc3)coc2c1 [7-O-N,N-diethyl-aminoacetyl daidzein, 7-O—N,N-diethyl-aminoacetyl daidzein] |  |  |  |  |  |  |  |  |  |  |  | 16.3 mg/g |  |
| CCN(CC)CC(=O)Oc1ccc2c(=O)c(-c3ccc(O)cc3)coc2c1 | 35.1 ± 6.6 min | 20.6 ± 5.5 min | 485.4 u | 33.6 ± 11.1 min | 297.6 u | 26.7 ± 4.8 s | 44.3% | 10.7 ± 1.96 cm | 8.17 ± 1.54 min | 14.9 ± 1.27 cm | 6.29 ± 1.31 min |  | effect on hypoxia tolerance time, in words [1]: significantly prolong; Prolongation rates (survival time) ([1]; 36 mg/kg intraperitoneally): 56%; antithrombotic effect after oral administration, in words [2]: significant efficacy; effect on acute ischemia tolerance time, in words (decapitated mice): significantly prolong; antithrombotic effect after oral administration, in words (thrombus): significant efficacy |
| CCN(CC)CC(=O)Oc1ccc(-c2coc3cc(O)ccc3c2=O)cc1 [4-substituted daidzein] | 21.1 ± 6.4 min | 29.3 ± 5.7 min | 341.3 u | 30.3 ± 9.4 min | 330.0 u | 20.3 ± 8.1 s | 9.7% | 14.1 ± 2.17 cm | 7.25 ± 1.34 min | 14.7 ± 2.02 cm | 6.44 ± 1.71 min |  |  |
| O=C(CCl)Oc1ccc2c(=O)c(-c3ccc(O)cc3)coc2c1 [7-O-chloroacetyl daidzein] |  |  |  |  |  |  |  |  |  |  |  | 17.6 mg/g |  |
| O=c1c(-c2ccc(O)cc2)coc2cc(O)ccc12 [Pueraria daidzein, daidzein] |  |  |  |  |  |  |  |  |  |  |  | 16.8 mg/g | effect on hypoxia tolerance time, in words [1]: poor effect; Survival times (X ± s) ([1]; 25 mg/kg intraperitoneally): 28.1 ± 5.3 min; Prolongation rates (survival time) ([1]; 25 mg/kg intraperitoneally): 24.9%; antithrombotic effect after oral administration, in words [2]: weak antithrombotic effect; Optimal dissolution times (X ± s), after administration ([2]; 25 mg/kg intragastrically 7 consecutive days): 27.3 ± 8.4 min; Fibrinolytic enzyme activities, after administration ([2]; 25 mg/kg intragastrically 7 days): 366.3 u; Optimal dissolution times (X ± s), before administration ([2]; 25 mg/kg group): 34.5 ± 10.1 min; Fibrinolytic enzyme activities, before administration ([2]; 25 mg/kg group): 289.9 u; effect on acute ischemia tolerance time, in words (decapitated mice): poor effect; Gasping times (X ± s) (decapitated mice; 25 mg/kg intraperitoneally): 23.1 ± 6.2 s; Prolongation rates (gasping time) (decapitated mice; 25 mg/kg intraperitoneally): 24.9%; antithrombotic effect after oral administration, in words (thrombus): weak antithrombotic effect; Lengths of thrombus, after administration (thrombus; [8]): 12.8 ± 1.49 cm; Thrombus formation times (X ± s), after administration (thrombus; [8]): 7.18 ± 1.27 min; Lengths of thrombus, before administration (thrombus; 15 mg/kg group): 14.2 ± 1.95 cm; Thrombus formation times (X ± s), before administration (thrombus; 15 mg/kg group): 6.21 ± 1.23 min |
| CCN(CC)CC(=O)Oc1ccc2c(=O)c(-c3ccc(O)cc3)coc2c1 [7-O—N,N-diethyl-aminoacetyl daidzein hydrochloride] |  |  |  |  |  |  |  |  |  |  |  |  | antithrombotic effect, in words (rat in vitro thrombosis; conclusion from table 2 and table 3 (oral and in vitro administration, rat)): good antithrombotic effect; solubility, in words ([3]; conclusion from table 1, methanol 25°C): higher solubility; solubility (solvent equilibrium experiment) ([3]; hydrochloride): 25 mg/g |
| CC(=O)Oc1ccccc1C(=O)O [Acetylsalicylic acid, acetylsalicylic acid] |  |  |  |  |  |  |  |  |  |  |  |  | inhibition at 45 mg/kg (rat in vitro thrombosis; po, rat, 45 mg/kg, positive control, read-out: Thrombosis inhibition rates): 58.7%; Wet weights of thrombus (rat in vitro thrombosis; rat, 45 mg/kg, positive control, n = 10, saline group 30.18 ± 3.12): 11.38 ± 1.47 mg; inhibition at 1.46 mg/kg [4]: 32.1% |
